# From ChEMBL document CHEMBL1158790, “Pseudopyronines A and B, alpha-pyrones produced by a marine Pseudomonas sp. F92S91, and evidence for the conversion of 4-hydroxy-alpha-pyrone to 3-furanone” (J Nat Prod, 2005)
# Calls of active or inactive are those of the source. The rule behind the calls is not given here.
# Tested on: Saccharomyces cerevisiae
# Test: Antifungal activity against Saccharomyces cerevisiae
# Format: functional, organism-based
structure (smiles),measurement,value
CCCCCCCC1=CC(=O)C(O)(CCCCCC)O1 (stereo unspecified),Activity,inactive
